From publication PMC7018972, “Novel and selective inactivators of Triosephosphate isomerase with anti-trematode activity” (Scientific Reports, 2020) come the findings set out here.

The structures appear in SMILES notation. Where two headings read alike, the source gives them in different places.

The target of assay [1] is Fasciola hepatica TIM (FhTIM) (Fasciola hepatica, UniProt S4UI50). In words: Inhibition of recombinant FhTIM, coupled enzyme assay. It counts as biochemical. In a few lines:
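E. coli-expressed FhTIM preincubated with compound 1 h at 37 °C in 100 mM triethanolamine, 10 mM EDTA, pH 7.4, 10% DMSO. Aliquot diluted into coupled assay (1 mM glyceraldehyde-3-phosphate, 0.2 mM NADH, α-glycerol phosphate dehydrogenase, pH 7.4) with NADH decrease at 340 nm, 38 °C. Triplicate, two independent experiments.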

Assay [2] has as its target T1, human (HsTIM) (Homo sapiens, UniProt P60174).
T1 construct: made in house; host or cells: Escherichia coli
In words: Selectivity assay, inhibition of HsTIM. It counts as biochemical. The settings on record: read-out: inhibition against HsTIM. On the procedure:
(§1) Expression and purification of proteins: FhTIM, RabbitTIM and HsTIM were expressed in Escherichia coli and purified as described in the literature[31],[37]. After purification, the enzyme, dissolved in 100 mM triethanolamine, 10 mM EDTA and 1 mM dithiothreitol (pH 8), was precipitated with ammonium sulfate (75% saturation) and stored at 4 °C. Before use, extensive dialysis against 100 mM triethanolamine/10 mM EDTA (pH 7.4) was performed. Protein concentration was determined by absorbance at 280 nm for FhTIM (ε = 33,460 M^−1cm^−1) and for RabbitTIM and HsTIM (ε = 33,460 M^−1cm^−1). Enzymatic activity was determined following the conversion of glyceraldehydes-3-phosphate into dihydroxyacetone phosphate in a coupled enzyme assay. The decrease in absorbance at 340 nm was followed in a multiplate reader VarioskanTM Flash Multimode Reader (Thermo ScientificTM, Waltham, MA, USA) at 38 °C. The reaction mixture (1 mL, pH 7.4) contained 100 mM triethanolamine, 10 mM EDTA, 0.2 mM NADH, 1 mM glyceraldehydes-3-phosphate and 0.9 units of α-glycerol phosphate dehydrogenase. The reaction was initiated by the addition of 5 ng/mL of the TIM of interest. For the inhibition studies, TIM was incubated at a concentration of 5 mg/mL in a buffer containing 100 mM triethanolamine, 10 mM EDTA, pH 7.4 and 10% of DMSO at 37 °C for 1 h. The mixture also contained the compounds, dissolved in DMSO, at the indicated concentrations. After 1 h, 10 µL were withdrawn and added to a final volume of 100 µL of the reaction mixture for the activity assay. The inhibition assay was performed in a 96-well microplate. None of the molecules tested here affected the activity of α-glycerol phosphate dehydrogenase, the enzyme used in the coupled assay. The IC50 value was taken as the concentration of drug needed to reduce the enzymatic activity to 50% by analysis using OriginLab8.5® sigmoidal regression (% of enzymatic activity vs. the logarithm of the compound concentration). The experiments were performed in triplicate in two independent experiments.

Assay [3] addresses T2, rabbit TIM (Oryctolagus cuniculus, UniProt P00939).
T2 construct: made in house; host or cells: Escherichia coli
In words: Selectivity assay, inhibition of rabbit TIM. In kind it is biochemical. To be noted: read-out: inhibition against rabbit TIM. On the procedure:
as §1

Assay [4] deals with newly excysted juvenile (NEJ) F. hepatica. In words: In vitro NEJ treatment. It counts as cell-based, Fasciola hepatica. To be noted: Fasciola hepatica, NEJ. How it is done: F. hepatica metacercariae were acquired from DILAVE, MGAP, Uruguay. NEJ were obtained by in vitro excystement as previously described with minor modifications. Briefly, metacercariae were incubated with 1% sodium hypochlorite for 5 min at room temperature to remove the outer cyst wall and then washed exhaustively with PBS 200 U/mL Penicillin G sulfate, […] streptomycin sulfate, 500 ng/mL amphotericin B, 10 mM HEPES, counted and divided into groups of around 20 parasites that were transferred to 12 wells tissue culture plates. Parasites were maintained at 37 °C, 5% CO2 in modified Basch’s medium. At day 1, compounds were added at the indicated concentrations and 0.5% DMSO was added to control groups; each condition was tested in duplicate. NEJ behavior was monitored under a light microscope (Olympus BX41), every day each well was recorded for a minute in order to assess parasite motility and registered using the following score: 3- normally active; 2- reduced activity (sporadic movement); 1- immotile (dead)[48].

In assay [5] the test system is S. mansoni somules. In words: S. mansoni somules phenotypic screen in vitro. It counts as cell-based, Schistosoma mansoni. The settings on record: for S. mansoni somules severity score: score 0 to maximum 4; for SOMULES SEVERITY SCORE: Table 2S, 10 uM. From the text: (§2) The NMRI isolate of S. mansoni was maintained by passage through Biomphalaria glabrata snails and 3–5 week-old, female Golden Syrian hamsters (Charles River, San Diego, CA) as intermediate and definite hosts, respectively. A dose of 600 infective larvae (cercariae) was used to infect hamsters. The acquisition, preparation and in vitro maintenance of S. mansoni post-infective larvae (schistosomula or somules) and adults have been already described[5],[50],[51]. Vertebrate animal maintenance and handling at the University of California San Diego Animal Care Facility were in accordance with protocols approved by the university’s Institutional Animal Care and Use Committee (IACUC).
Phenotypic screens with somules were performed as described[5],[50],[51]. Initially, 100 μL Basch medium, 100 U/ml penicillin, […] streptomycin, 4% heat-inactivated FBS (Corning Mediatech) and 1 μl compound in DMSO were added to clear, 96-well round-bottomed plates (Costar cat.# 3367). Then, 100 μL of the same medium containing 40–50 somules was added to mix the compound with somules (final concentration of DMSO was 0.5%). Assay plates were placed into plastic boxes humidified with wet tissue and then incubated at 37 °C in a 5% CO2 environment. Somules phenotypes were recorded every 24 h up to 72 h using an inverted microscope (Zeiss Axiovert 40 C).
(§3) Schistosome phenotypic responses were recorded employing a series of ‘descriptors,’ such as rounding, degeneration, overactivity, loss of translucency and changes in motility, as described previously[5],[50],[51],[53]. To allow for comparisons of compound activity, each descriptor was awarded a value of 1 and these were added up to a maximum ‘severity score’ of 4. Evidence of degeneracy or death was awarded the maximum score of 4. Scores were averaged across duplicate wells for each compound (see details in the supporting information).

Assay [6] addresses FhTIM (Fasciola hepatica, UniProt S4UI50). In words: Microscale thermophoresis (MST) binding to FhTIM. The settings on record: 24 °C. On the procedure:
MST experiments were performed according to the NanoTemper technologies protocol in a Monolith NT.115 (red/blue) instrument (NanoTemper Technologies, München, Germany[36]). With this technique, the diffusion behavior of a labeled protein is measured when an infrared light excites the movement of the protein in capillaries. This behavior is the combination of two effects: the fast, local environment-dependent responses of the fluorophore to the temperature jump and the slower diffusive thermophoresis fluorescence changes. It will be modified when the protein is complexed with increasing amounts of unlabeled partners, leading to titration curves that can be fit for Kd estimation. In practice, FhTIM was labeled with the Monolith His-Tag Labeling Kit RED-tris-NTA (NanoTemper Technologies, München, Germany), as described by the manufacturer. The experiments were performed using 20% and 40% MST power and between 20–80% LED power at 24 °C. The MST traces were recorded using the standard parameters: 5 s MST power off, 30 s MST power on, and 5 s MST power off. The compounds were used at high concentrations (around 5 mM) in the bindings check assay with DMSO at 5% v/v. If the binding check was positive, then the affinity determination was performed with the same experimental settings, with serial 2x dilutions of the compound of interest.

Assay [7] relates to S. mansoni adults. In words: S. mansoni adults phenotypic screen ex vivo. It counts as cell-based, Schistosoma mansoni. The settings on record: Table 2S, 5 uM.
Description: as §2
Phenotypic screens with 42-day-old, adult parasites were performed in 24-well plates (Costar cat.# 3526) containing the above medium and approximately five adult males and two females per well. Compound was added in a volume of up to 1 μL DMSO at a concentration of 5 µM (0.05% DMSO final). Assay plates were incubated at 37 °C in a 5% CO2 environment. Parasite phenotypes were recorded at 4, 8 and 24 h using a Zeiss Axiovert 40 C.
as §3

The mark [8] stands for this setting: Figure 1, ranges of inhibitory activity, read-out: IC50 range.
Setting [9] is: recombinant FhTIM, 1 h incubation with compound at 37 °C, read-out: IC50.
The mark [10] stands for this setting: Table 1S, screening of 340 compounds in FhTIM, table head prints no unit, µM per b8/b9, read-out: IC50.

Chain of FhTIM (S4UI50 entry or part of it): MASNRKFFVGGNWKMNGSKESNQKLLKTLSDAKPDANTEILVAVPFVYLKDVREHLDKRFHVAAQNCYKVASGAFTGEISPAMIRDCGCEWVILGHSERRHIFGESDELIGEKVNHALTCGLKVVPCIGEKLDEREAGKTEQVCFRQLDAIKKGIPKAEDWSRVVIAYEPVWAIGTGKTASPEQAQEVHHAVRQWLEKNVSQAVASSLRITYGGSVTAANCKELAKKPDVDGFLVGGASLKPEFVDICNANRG
Chain of Fasciola hepatica TIM (FhTIM) (S4UI50 entry or part of it): as above
T2 sequence (P00939 whole entry): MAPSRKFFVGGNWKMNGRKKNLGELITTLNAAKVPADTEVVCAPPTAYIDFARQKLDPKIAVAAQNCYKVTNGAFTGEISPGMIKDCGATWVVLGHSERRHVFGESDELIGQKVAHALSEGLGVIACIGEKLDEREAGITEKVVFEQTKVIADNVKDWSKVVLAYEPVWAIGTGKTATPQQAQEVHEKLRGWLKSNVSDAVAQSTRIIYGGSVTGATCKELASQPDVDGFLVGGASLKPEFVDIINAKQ
T1 sequence (P60174 whole entry): as the sequence (P00939 whole entry) above, with K20Q, N21S, T27G, S119A counted along it

Consider `O=C1C(=Cc2ccc([N+](=O)[O-])cc2)C(=O)N(CCc2ccccc2)S(=O)(=O)N1CCc1ccccc1` [Compound 110], for which the IC50 in assay [1] (setting [8]) is less than 50 µM; in assay [1] (setting [9]), 7 ± 1 µM; in assay [4] (incubation time 30 h) it was 5 ± 2 µM. The inhibition at 100 µM in assay [2] and in assay [3] was less than 20% in each case. The “S. mansoni somules severity score” value in assay [5] (Table 2, time not given) is 0. Besides, the “SOMULES SEVERITY SCORE” value in assay [5] (24 h), in assay [5] (48 h) and in assay [5] (3d) was 0 each time.

As to `O=C1C(=Cc2ccc([N+](=O)[O-])s2)C(=O)N(Cc2ccccc2)S(=O)(=O)N1Cc1ccccc1` [Compound 114], the results for the IC50 in assay [1] (setting [8]), in assay [1] (setting [9]) and in assay [4] (incubation time 4 h) were less than 50 µM, 25 ± 8 µM and 6.5 ± 0.6 µM, respectively. The Kd in assay [6] is 664 ± 25 µM. Further, the “S. mansoni somules severity score” value in assay [5] (Table 2, 72 h) is reported as 4 (72 h). In addition, the “SOMULES SEVERITY SCORE” value in assay [5] (24 h) was 0; in assay [5] (48 h) it was 3; in assay [5] (3d), 4.

Turning to `O=C1C(=Cc2ccc([N+](=O)[O-])s2)C(=O)N(CCc2ccccc2)S(=O)(=O)N1CCc1ccccc1` [Compound 115], the IC50 in assay [1] (setting [8]) is less than 50 µM; in assay [1] (setting [9]), 8 ± 2 µM; in assay [4] (incubation time 72 h), 7 ± 2 µM. In addition, in assay [6], the Kd was 120 ± 12 µM. The inhibition at 100 µM in assay [2] and in assay [3] was less than 20% throughout. Further, the “S. mansoni somules severity score” value in assay [5] (Table 2, 72 h) is given as 4 (72 h). The figures for the “SOMULES SEVERITY SCORE” value in assay [5] (24 h), in assay [5] (48 h) and in assay [5] (3d) were 2, 3 and 4, respectively.

`CCCCCCN1C(=O)C(=Cc2ccc([N+](=O)[O-])cc2)C(=O)N(CCCCCC)S1(=O)=O` [Compound 128]: the IC50 in assay [1] (setting [8]) was less than 50 µM; in assay [1] (setting [10]), less than 25 µM; in assay [1] (setting [9]), 5 ± 1 µM; in assay [4] (incubation time 12 h), 10 ± 1 µM. Besides, in assay [6], the Kd was 120 ± 10 µM. Also, the inhibition at 100 µM in assay [2] and in assay [3] was less than 20% each time.

As for `C=CCN1C(=O)CSC1=NN=Cc1ccc2c(c1)[n+]([O-])c(-c1ccccc1)c(C(=O)Nc1ccccc1)[n+]2[O-]` [Compound 303], the IC50 in assay [1] (setting [10]) is greater than 100 µM. The “SOMULES SEVERITY SCORE” value in assay [5] (24 h) was 0; in assay [5] (48 h), 4; in assay [5] (3d), 4. Also, the “ADULTS SEVERITY SCORE” value in assay [7] (4 h), in assay [7] (8 h) and in assay [7] (24 h) was 0 throughout.

On to `CCCCN1C(=O)C(=Cc2ccc([N+](=O)[O-])s2)C(=O)N(CCCC)S1(=O)=O` [Compound 1148], for which the IC50 in assay [1] (setting [8]) is less than 50 µM; in assay [1] (setting [9]), 15 ± 5 µM; in assay [4] (incubation time 4 h) it was 12 ± 2 µM. Besides, the entries for the “SOMULES SEVERITY SCORE” value in assay [5] (24 h), in assay [5] (48 h) and in assay [5] (3d) were 0, 1 and 0, respectively.
